Assay results: article PMC10492809, “A Bischler-Napieralski and homo-Mannich sequence enables diversified syntheses of sarpagine alkaloids and analogues” (Nature Communications, 2023)
Where “and” joins values, the source holds several entries; their conditions need not be identical. Identical values can stand only once. Like-named read-outs stand apart in the source and are kept apart here.

Tests used:
Assay type in all cases: cell-based
HCT 116 = assay: MTT cell viability assay, HCT 116
Experimental: (§1) All cell lines were cultured at 37 °C with 5% CO2 in a humidified incubator. HeLa cells were grown in MEM (Gibco) supplemented with 10% fetal bovine serum (FBS, Hyclone) and 1% penicillin/streptomycin (Gibco). MIA PaCa-2, MDA-MB-231, A549, MCF-7, A375 and BEAS-2B cells were grown in DMEM (Gibco) supplemented with 10% FBS and 1% penicillin/streptomycin. CT26, and HCT116 cells were grown in RPMI-1640 supplemented with 10% FBS and 1% penicillin/streptomycin. All cell lines were purchased from the National Collection of Authenticated Cell Cultures (China).
(§2) The antiproliferative activities of the prepared compounds against tested cell lines were evaluated using a standard (MTT)-based colorimetric assay. Cells were plated at a density of 3000 cells/well in 96-well plates and allowed to adhere overnight. Then cells were treated with varying concentrations of synthesized compounds for 72 h. At the end of treatment, 20 μL of thiazolyl blue tetrazolium bromide (MTT) solution (5 mg/mL) was added to each well. Cells were incubated for an additional 4 h at 37 °C and then the medium was removed and replaced with 200 μL of DMSO. The absorbance (OD490) was read on a microplate reader (SpectraMax i3x, Molecular Devices, US). In all experiments, three replicate wells were used for each drug concentration. Each assay was performed at least three times. The IC50 values were calculated by GraphPad Prism 9, which were the mean values derived from three independent experiments.

Hela = assay: MTT cell viability assay, Hela
Experimental: as §1, §2

MDA-MB-231 = assay: MTT cell viability assay, MDA-MB-231
Experimental: as §1, §2

MIA PaCa-2 = assay: MTT cell viability assay, MIA PaCa-2
Experimental: as §1, §2

[1] = test system: lung epithelial BEAS-2B cells; assay: MTT cytotoxicity towards normal cells, BEAS-2B
Experimental: as §1, §2

CT26 = assay: MTT cell viability assay, CT26
Experimental: as §1, §2

MCF-7 = assay: MTT cell viability assay, MCF-7
Experimental: as §1, §2

A549 = assay: MTT cell viability assay, A549
Experimental: as §1, §2

A375 = assay: MTT cell viability assay, A375
Experimental: as §1, §2

[2] = MTT cytotoxicity towards normal cells, BEAS-2B; conditions: human
Experimental: as §1, §2

cancer cell lines = assay: In vitro cancer cell assays (antiproliferation, cell line not given)
Experimental: as §1, §2

MDA-MB-231 cells = assay: Cell death manner assay (MTT, co-incubation with cell death inhibitors); conditions: Fer-1 / NAC experiment; 15ai 10 μM, Fer-1 10 μM, NAC 5 mM, 72 h; single replicates
Experimental: [The source words this procedure for another cell line and reports this cell line under the same test.] To investigate the mechanism of 15ai in cancer cell proliferation inhibition, the manners of cell death were analyzed. The cell apoptosis inhibitor Z-VAD-FMK (Z-VAD), cell necrosis inhibitor Necrostatin-1 (Necro-1), ferroptosis inhibitor Ferrostatin-1 (Fer-1), and ROS inhibitor N-acetylcysteine (NAC) were purchased and stored at −20 °C. A375 cells were seeded with a density of 5000 cells/100 µL/well into 96 well plates. After 12 h, 15ai was added at different concentrations. Following that 10 µM Z-VAD, 10 µM Nerco-1, 10 µM Fer-1, and 5 mM NAC were added and co-incubated with 15ai, respectively, for 72 h. Then, 20 µL MTT solution (5 mg/mL) was added and incubated at 37 °C for an additional 4 h. Then, the supernatant was discarded, and 200 μL DMSO was added to dissolve the precipitate. After 15 min, the absorbance (OD490) was read on a microplate reader (SpectraMax i3x, Austria). In all experiments, three replicate wells were used for each drug concentration. Each assay was performed at least three times.

[3] = source data sheet, single values of three experiments, read-out: MTT IC50 HCT-116
[4] = source data sheet, single values of three experiments, read-out: MTT IC50 Hela
[5] = source data sheet, single values of three experiments, read-out: MTT IC50 MDA-MB-231
[6] = source data sheet, single values of three experiments, read-out: MTT IC50 MIA PaCa-2
[7] = source data sheet, single values of three experiments, read-out: MTT IC50 CT-26
[8] = source data sheet, single values of three experiments, read-out: MTT IC50 MCF-7
[9] = source data sheet, single values of three experiments, read-out: MTT IC50 A549
[10] = source data sheet, single values of three experiments, read-out: MTT IC50 A375

With `CC=C1CN2C3CC1C(C=O)C2Cc1c3n(S(=O)(=O)c2ccc(C)cc2)c2ccccc12` (centres unmarked) [Compound 15ar] the IC50 (HCT 116; MTT, 72 h, mean of at least three independent experiments, read-out: IC50 HCT 116) was 6.96 µM, the IC50 (HCT 116; [3]) was 8.05 µM and 5.83 µM and 7.01 µM and the IC50 (Hela; MTT, 72 h, mean of at least three independent experiments, read-out: IC50 Hela) was 6.16 µM. The IC50 (Hela; [4]) was 7.46 µM and 6.04 µM and 4.98 µM, the IC50 (MDA-MB-231; MTT, 72 h, mean of at least three independent experiments, read-out: IC50 MDA-MB-231) was 4.63 µM and the IC50 (MDA-MB-231; [5]) was 5.08 µM and 4.02 µM and 4.8 µM. For the same compound, the IC50 (MIA PaCa-2; MTT, 72 h, mean of at least three independent experiments, read-out: IC50 MIA PaCa-2) was 13.3 µM, the IC50 (MIA PaCa-2; [6]) was 14.9 µM and 13 µM and 12 µM and the CC50 ([1]; MTT, 72 h, cytotoxicity towards normal cells, mean of at least three independent experiments) was > 100 µM. The IC50 ([1]; source data sheet, single values of three experiments) was > 100 µM, the IC50 (CT26; MTT, 72 h, mean of at least three independent experiments, read-out: IC50 CT26) was 9.39 µM and the IC50 (CT26; [7]) was 10.9 µM and 8.18 µM and 9.11 µM. The IC50 (MCF-7; MTT, 72 h, mean of at least three independent experiments, read-out: IC50 MCF-7) was 17.8 µM, the IC50 (MCF-7; [8]) was 19.9 µM and 15.7 µM and 17.7 µM and the IC50 (A549; MTT, 72 h, mean of at least three independent experiments, read-out: IC50 A549) was 14.1 µM. The IC50 (A549; [9]) was 16.5 µM and 14 µM and 11.7 µM, the IC50 (A375; MTT, 72 h, mean of at least three independent experiments, read-out: IC50 A375) was 4.54 µM and the IC50 (A375; [10]) was 5.71 µM and 3.87 µM and 4.03 µM.

In the case of `CC=C1CN2C3CC1C(C=O)C2Cc1c3n(C)c2ccccc12` (centres unmarked) [Na-methylvellosimine (5), Na-methylvellosimine], the IC50 (HCT 116; Homo sapiens, HCT-116, 72 h, MTT, 72 h, mean of at least three independent experiments, read-out: IC50 HCT 116) is reported as 23.6 µM, the IC50 (HCT 116; Homo sapiens, HCT-116, source data sheet, single values of three experiments, read-out: MTT IC50 HCT-116) is reported as 25.2 µM and the IC50 (HCT 116; [3]) is reported as 22.5 µM and 23 µM. For the same compound, the IC50 (Hela; Homo sapiens, HeLa, 72 h, MTT, 72 h, mean of at least three independent experiments, read-out: IC50 Hela) was 22.3 µM, the IC50 (Hela; Homo sapiens, HeLa, source data sheet, single values of three experiments, read-out: MTT IC50 Hela) was 24.5 µM and the IC50 (Hela; [4]) was 21.9 µM and 20.4 µM. For the same compound, the IC50 (MDA-MB-231; Homo sapiens, MDA-MB-231, 72 h, MTT, 72 h, mean of at least three independent experiments, read-out: IC50 MDA-MB-231) was 20.7 µM, the IC50 (MDA-MB-231; Homo sapiens, MDA-MB-231, source data sheet, single values of three experiments, read-out: MTT IC50 MDA-MB-231) was 20.4 µM and the IC50 (MDA-MB-231; [5]) was 22.8 µM and 18.8 µM. The IC50 (MIA PaCa-2; Homo sapiens, MIA PaCa-2, 72 h, MTT, 72 h, mean of at least three independent experiments, read-out: IC50 MIA PaCa-2) was 26.7 µM, the IC50 (MIA PaCa-2; Homo sapiens, MIA PaCa-2, source data sheet, single values of three experiments, read-out: MTT IC50 MIA PaCa-2) was 29.2 µM and the IC50 (MIA PaCa-2; [6]) was 23.5 µM and 27.3 µM. For the same compound, the IC50 at 72 h ([2]; BEAS-2B lung epithelial cells (normal cells), source data sheet, single values of three experiments) was > 100 µM, the CC50 at 72 h ([2]; BEAS-2B lung epithelial cells, MTT, 72 h, cytotoxicity towards normal cells, mean of at least three independent experiments) was > 100 µM and the IC50 (CT26; Mus musculus, CT26, 72 h, MTT, 72 h, mean of at least three independent experiments, read-out: IC50 CT26) was 21.4 µM. The IC50 (CT26; Mus musculus, CT26, source data sheet, single values of three experiments, read-out: MTT IC50 CT-26) was 19.6 µM, the IC50 (CT26; [7]) was 20.7 µM and 23.8 µM and the IC50 (MCF-7; Homo sapiens, MCF7, 72 h, MTT, 72 h, mean of at least three independent experiments, read-out: IC50 MCF-7) was 41.8 µM. The IC50 (MCF-7; Homo sapiens, MCF7, source data sheet, single values of three experiments, read-out: MTT IC50 MCF-7) was 44.7 µM, the IC50 (MCF-7; [8]) was 40.8 µM and 39.9 µM and the IC50 (A549; Homo sapiens, A549, 72 h, MTT, 72 h, mean of at least three independent experiments, read-out: IC50 A549) was 20.9 µM. For the same compound, the IC50 (A549; Homo sapiens, A549, source data sheet, single values of three experiments, read-out: MTT IC50 A549) was 23.1 µM, the IC50 (A549; [9]) was 19 µM and 20.4 µM and the IC50 (A375; Homo sapiens, A-375, 72 h, MTT, 72 h, mean of at least three independent experiments, read-out: IC50 A375) was 27.6 µM. For the same compound, the IC50 (A375; Homo sapiens, A-375, source data sheet, single values of three experiments, read-out: MTT IC50 A375) was 29.2 µM, the IC50 (A375; [10]) was 25.9 µM and 27.8 µM and the “antiproliferation activity in the in vitro cancer cell assays” value (cancer cell lines; result in words) was “moderate antiproliferation activity”.

With `CC(=O)N[C@@H](CS)C(=O)O` [NAC, N-acetylcysteine, reference compound] the Percentage of viability (MDA-MB-231 cells) was 108.212% and 96.8182% and 102.046%.

In the case of `C=C=C1CN2[C@H]3C[C@H]1[C@H](C(=O)O)[C@@H]2Cc1c3n(S(=O)(=O)c2ccc(C)cc2)c2ccccc12` [Compound 15an], the “loss in antiproliferation activity on replacing the aldehyde group” value (cancer cell lines; SAR statement in words) is reported as “complete”.
